Assays:
[1] = test system: AsPC-1; experiment: Cell viability assay (CellTiter Glo), pancreatic adenocarcinoma AsPC-1; format: cell-based; conditions: Homo sapiens, ASPC1; pancreatic adenocarcinoma, ascites, 96 hours, CellTiter Glo; read-out: IC50 AsPC-1
Procedure: (§1) Cell viability assay was performed to assess the potency of the compounds in human cancer cell lines KP4 (pancreatic ductal adenocarcinoma), MiaPaCa-2 (pancreatic carcinoma), AsPC-1 (pancreatic adenocarcinoma, ascites), 143B (osteosarcoma), and SJSA-1 (osteosarcoma). Selected compounds were also assayed in a human breast epithelial cell line MCF-10A, a nontumorigenic cell line as a control to assess differential activity. Cells at a density of 500-5,000 cells/well were seeded in 96-well plates and incubated at 37° C. overnight. A series of 9 different concentrations of compound stocks (500×) were created by 3-fold serial dilution in DMSO. These compounds were further diluted in culture media and then added to cells so that the final DMSO concentration was equal to 0.25% or less. After 96 hours of incubation, 50 μL of CellTiter Glo reagent (Promega) was added to each well and luminescence was measured after 10 minutes using EnVision (PerkinElmer). Compounds titrated from top concentration of up to 30 μM. The select compounds were tested initially from 30 μM as the top concentration in duplicates (range of 4.6 nM-30 μM). […] Luminescence from cells treated with DMSO alone was set as Max and % of inhibition was calculated as follows: Inhibition %=(Max-Sample value)/Max*100. Data was analyzed using XL-fit software (ID Business Solutions Ltd.). IC50, relative IC50, or % of top inhibition was calculated.
The results of the assay in the pancreatic cell lines are given in Table 15a for PANC1, Table 15b for MiaPaCa-2, and Table 15c for AsPC-1.

[2] = Whole blood stability, mouse; format: in vitro ADME
From the text: (§2) The results of the assay on stability in blood and IC50 values for pancreatic cancer cell line KP4 are given below in Table 24.

[3] = Whole blood stability, human; format: in vitro ADME
From the text: as §2

[4] = test system: MCF-10A; experiment: Cell viability assay (CellTiter Glo), non-tumorigenic breast epithelial cell line MCF-10A; format: cell-based; conditions: Homo sapiens, 96 hours
Procedure, shortened: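 MCF-10A cells (500-5,000/well) treated 96 h at 37° C with 9-point 3-fold dilutions from up to 30 μM, ≤0.25% DMSO, in duplicate. Viability by CellTiter Glo luminescence; % inhibition versus DMSO-only wells gave IC50, relative IC50 or % top inhibition. Paclitaxel positive control.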

[5] = test system: KP4; experiment: Cell viability assay (CellTiter Glo), pancreatic ductal adenocarcinoma KP4; format: cell-based, human; conditions: Homo sapiens, KP-4, 96 h, pancreatic cancer cell line KP4, 96 hours, CellTiter Glo; read-out: IC50 μM KP4
Procedure, shortened: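 KP4 cells seeded at 1,000–10,000 per well, treated 96 h with 9-point 3-fold dilutions from 30 μM top (4.6 nM–30 μM, duplicates; ≤0.25% DMSO). Viability by CellTiter Glo luminescence; % inhibition relative to DMSO-only wells, giving IC50, relative IC50 or % top inhibition.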

[6] = test system: SJSA-1; experiment: Cell viability assay (CellTiter Glo), osteosarcoma SJSA-1; format: cell-based; conditions: Homo sapiens, 96 hours
Procedure: as §1
(§3) The results of the assay in sarcoma cell lines are given in Table 21a for HT-1080 luc2 (fibrosarcoma expressing a luciferase gene), Table 21b for 143B (osteosarcoma), and Table 21c for SJSA-1 (osteosarcoma).

[7] = test system: 143B; experiment: Cell viability assay (CellTiter Glo), osteosarcoma 143B; format: cell-based; conditions: Homo sapiens, 96 h, osteosarcoma, 96 hours, CellTiter Glo, read-out: IC50 143B
Procedure: as §1, §3

[8] = test system: MiaPaCa-2; experiment: Cell viability assay (CellTiter Glo), pancreatic carcinoma MiaPaCa-2; format: cell-based; conditions: Homo sapiens, MIA PaCa-2; pancreatic carcinoma, 96 hours, CellTiter Glo; read-out: IC50 MiaPaCa-2
Procedure, shortened: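 MiaPaCa-2 and AsPC-1 cells were seeded overnight at 37 °C and exposed for 96 h to 9-point, 3-fold dilutions from up to 30 μM (final DMSO ≤0.25%). CellTiter Glo luminescence was read, and inhibition was calculated relative to DMSO-only cells. IC50, relative IC50 or % top inhibition was derived.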

[9] = Pharmacokinetic (PK) studies in Balb/C nude mice via intraperitoneal injection; conditions: male, Balb/c nude, mouse, plasma, ip, 15 mg/kg, Calculated Concentration, IP 15 mg/kg, Balb/C nude mice

Row | Structure (SMILES) | IC50 [1] [nM] | IC50 [4] [nM] | IC50 [6] [nM] | IC50 [7] [nM] | IC50 [8] [nM] | other results
1 | [2H]C([2H])(Cl)C(=O)N1[C@@H](c2ccc(C(=O)OC(C)(C)C)cc2)c2[nH]c3ccccc3c2C[C@@H]1C(=O)OC [BZ] | 30 | 590 |  |  |  | Whole Blood Stability % Remaining at 37° C. Mouse ([2]; 0 min): 100.0%; Whole Blood Stability % Remaining at 37° C. Mouse ([2]; 30 min): 65.4%; Whole Blood Stability % Remaining at 37° C. Mouse ([2]; 60 min): 30.7%; Whole Blood Stability % Remaining at 37° C. Human ([3]; 0 min): 100.0%; Whole Blood Stability % Remaining at 37° C. Human ([3]; 30 min): 73.5%; Whole Blood Stability % Remaining at 37° C. Human ([3]; 60 min): 40.8%; IC50 [5]: < 0.01 µM
2 | [2H]C([2H])([2H])OC(=O)[C@H]1Cc2c([nH]c3ccccc23)[C@H](c2ccc(C(=O)OC(C)(C)C)cc2)N1C(=O)CCl [CA] | 23 | 470 |  |  |  | Whole Blood Stability % Remaining at 37° C. Mouse ([2]; 0 min): 100.0%; Whole Blood Stability % Remaining at 37° C. Mouse ([2]; 30 min): 80.8%; Whole Blood Stability % Remaining at 37° C. Mouse ([2]; 60 min): 33.2%; Whole Blood Stability % Remaining at 37° C. Human ([3]; 0 min): 100.0%; Whole Blood Stability % Remaining at 37° C. Human ([3]; 30 min): 86.9%; Whole Blood Stability % Remaining at 37° C. Human ([3]; 60 min): 48.9%; IC50 [5]: < 0.01 µM
3 | [2H]C([2H])([2H])OC(=O)[C@H]1Cc2c([nH]c3ccccc23)[C@H](c2ccc(C(=O)OC)cc2)N1C(=O)CCl [CC] | 118 | 1680 |  |  |  | Whole Blood Stability % Remaining at 37° C. Mouse ([2]; 0 min): 100.0%; Whole Blood Stability % Remaining at 37° C. Mouse ([2]; 30 min): 0.0%; Whole Blood Stability % Remaining at 37° C. Mouse ([2]; 60 min): 0.0%; Whole Blood Stability % Remaining at 37° C. Human ([3]; 0 min): 100.0%; Whole Blood Stability % Remaining at 37° C. Human ([3]; 30 min): 63.8%; Whole Blood Stability % Remaining at 37° C. Human ([3]; 60 min): 33.5%; IC50 [5]: < 0.01 µM
4 | COC(=O)c1ccc([C@H]2c3[nH]c4ccccc4c3C[C@H](C(=O)OC(C)(C)C)N2C(=O)CCl)cc1 [Example 2] |  |  | 236 | 153 | 60 | 
5 | COC(=O)[C@H]1Cc2c([nH]c3ccccc23)[C@H](c2ccc(C(=O)OC[C@]34C[C@H]5C[C@H](C[C@H](C5)C3)C4)cc2)N1C(=O)CCl [Example 6] |  | 3760 | 146 | 87 | 55 | 
6 | CNC(=O)c1ccc([C@H]2c3[nH]c4ccccc4c3C[C@H](C(=O)OC)N2C(=O)CCl)cc1 [Example 7] |  |  | 687 | 273 | 119 | 
7 | COC(=O)[C@H]1Cc2c([nH]c3ccccc23)[C@H](c2ccc(C(=O)N(C)C)cc2)N1C(=O)CCl [Example 8] |  |  | 250 | 143 | 77 | 
8 | COC(=O)[C@H]1Cc2c([nH]c3ccccc23)[C@H](c2ccc(C(=O)NC(C)(C)C)cc2)N1C(=O)CCl [Example 9] |  | 2270 | 69 | 32 | 12 | 
9 | COC(=O)[C@H]1Cc2c([nH]c3ccccc23)[C@H](c2ccc(C(=O)NC(C(=O)O)C(C)(C)C)cc2)N1C(=O)CCl (stereo partly drawn) [Example 10] |  | > 30000 | 15300 | 4410 | 1590 | 
10 | CC(C)(C)OC(=O)[C@H]1Cc2c([nH]c3ccccc23)[C@H](c2ccc([N+](=O)[O-])cc2)N1C(=O)CCl [Example 11] |  |  | 327 | 135 | 91 | 
11 | COC(=O)[C@H]1Cc2c([nH]c3ccccc23)[C@H](c2ccc(OC(C)=O)cc2)N1C(=O)CCl [Example 12] |  | 1420 | 149 | 81 | 69 | 
12 | COC(=O)[C@H]1Cc2c([nH]c3ccccc23)[C@H](c2ccc(OC(=O)C(C)(C)C)cc2)N1C(=O)CCl [Example 13] |  | 3050 | 157 | 109 | 131 | 
13 | COC(=O)[C@H]1Cc2c([nH]c3ccccc23)[C@H](c2ccc(C(=O)NCCNC(=O)OC(C)(C)C)cc2)N1C(=O)CCl [Example 16] |  | 1950 | 200 | 104 | 24 | 
14 | CC(C)(C)OC(=O)c1ccc([C@H]2c3[nH]c4ccccc4c3C[C@H](C(=O)OC(C)(C)C)N2C(=O)CCl)cc1 [Example 19] |  | 430 | 215 | 101 | 63 | 
15 | CC(C)OC(=O)[C@H]1Cc2c([nH]c3ccccc23)[C@H](c2ccc(C(=O)OC(C)(C)C)cc2)N1C(=O)CCl [Example 20] |  | 820 | 149 | 75 | 37 | 
16 | CN(C)C(=O)[C@H]1Cc2c([nH]c3ccccc23)[C@H](c2ccc(C(=O)OC(C)(C)C)cc2)N1C(=O)CCl [Example 21] |  | 1580 | 170 | 90 | 64 | 
17 | CNS(=O)(=O)c1ccc([C@H]2c3[nH]c4ccccc4c3C[C@H](C(=O)OC)N2C(=O)CCl)cc1 [Example 22] |  | 3300 | 202 | 74 | 39 | 
18 | COC(=O)[C@H]1Cc2c([nH]c3ccccc23)[C@H](c2ccc(S(=O)(=O)N(C)C)cc2)N1C(=O)CCl [Example 23] |  | 2390 | 90 | 34 | 36 | 
19 | CN(C)C(=O)[C@H]1Cc2c([nH]c3ccccc23)[C@H](c2ccc([Si](C)(C)C)cc2)N1C(=O)CCl [Example 67] |  |  |  |  | 805 | concentration at 0.5 h ([9]; individual mice): 90.6 ng/mL; concentration at 1 h ([9]; individual mice): 38.7 ng/mL; concentration at 4 h ([9]; individual mice): 16.6 ng/mL; concentration at 0.5 h ([9]; Mean, mean of 3 mice): 112 ng/mL; concentration at 1 h ([9]; Mean, mean of 3 mice): 51.7 ng/mL; concentration at 2 h ([9]; Mean, 2 h, mean of 3 mice): 20.2 ng/mL; concentration at 4 h ([9]; Mean, mean of 3 mice): 14.4 ng/mL
20 | COC(=O)[C@H]1Cc2c([nH]c3ccccc23)[C@H](c2ccc(C(=O)OCC3CCCC3)cc2)N1C(=O)CCl [Example 86] | 21 | 330 |  |  |  | 
21 | COC(=O)[C@H]1Cc2c([nH]c3ccc(Br)cc23)[C@H](c2ccc(C(=O)OCC3CC3)cc2)N1C(=O)CCl [Example 87] | 22 | 460 |  |  |  | 
22 | COC(=O)c1ccc([C@H]2c3[nH]c4ccc(Br)cc4c3C[C@H](C(=O)OC)N2C(=O)CCl)cc1 [Example 88] | 30 | 460 |  |  |  | 
23 | [2H]C([2H])(Cl)C(=O)N1[C@@H](c2ccc(C(=O)OC)cc2)c2[nH]c3ccccc3c2C[C@@H]1C(=O)OC [Example 90] | 132 | 1480 |  |  |  | 
